Laboratory results as given in patent US11051515B2, “3-acyl-benzamides and their use as herbicides” (Bayer Aktiengesellschaft, priority 2017, dated 2021).

How the values were obtained:
VERPE [1] = test: Post-emergence action against VERPE; assay type: in vivo, Veronica persica; conditions: dosage 80 g/ha
How it was run: (§1)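 Post-emergence foliar spray on greenhouse plants at the one-leaf stage, using wettable-powder or emulsion-concentrate formulations in water (600 to […], plus 0.2% wetting agent). Damage scored by eye roughly 3 weeks later against untreated plants: 0% = like control, 100% = dead.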

ECHCG [2] = test: Pre-emergence action against ECHCG; assay type: in vivo, Echinochloa crus-galli
How it was run: (§2)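 Seeds sown in sandy loam in wood-fiber pots and covered with soil. Greenhouse growth; visual damage scored after 3 weeks versus untreated controls (100% = dead, 0% = like control).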

ECHCG [3] = test: Post-emergence action against ECHCG; assay type: in vivo, Echinochloa crus-galli; conditions: post-emergence, dosage 80 g/ha, visual assessment about 3 weeks after treatment vs untreated controls
How it was run: as §1

AVEFA [4] = test: Post-emergence action against AVEFA; assay type: in vivo, Avena fatua; conditions: post-emergence, dosage 80 g/ha, visual assessment about 3 weeks after treatment vs untreated controls
How it was run: as §1

ABUTH [5] = test: Post-emergence action against ABUTH; assay type: in vivo, Abutilon theophrasti; conditions: post-emergence, dosage 80 g/ha, visual assessment about 3 weeks after treatment vs untreated controls
How it was run: as §1

PHBPU = test: Post-emergence action against PHBPU; assay type: in vivo, Pharbitis purpurea; conditions: post-emergence, dosage 80 g/ha
How it was run: as §1

MATIN [6] = test: Pre-emergence action against MATIN; assay type: in vivo, Matricaria inodora; conditions: for Herbicidal efficacy against MATIN: 20 g of a.i./ha
How it was run: as §2

SETVI [7] = test: Pre-emergence action against SETVI; assay type: in vivo, Setaria viridis; conditions: pre-emergence, dosage 320 g/ha, scored visually after 3 weeks vs untreated controls
How it was run: as §2

AMARE [8] = test: Post-emergence action against AMARE; assay type: in vivo, Amaranthus retroflexus; conditions: Amaranthus retroflexus, 504 h; post-emergence, dosage 80 g/ha, visual assessment about 3 weeks after treatment vs untreated controls; read-out: Post-emergence action against AMARE (herbicidal action in percent)
How it was run: as §1

VIOTR [9] = test: Post-emergence action against VIOTR; assay type: in vivo, Viola tricolor
How it was run: as §1

SETVI [10] = test: Post-emergence action against SETVI; assay type: in vivo, Setaria viridis; conditions: post-emergence, dosage 80 g/ha, visual assessment about 3 weeks after treatment vs untreated controls
How it was run: as §1

MATIN [11] = test: Post-emergence action against MATIN; assay type: in vivo, Matricaria inodora
How it was run: as §1

VERPE [12] = test: Pre-emergence action against VERPE; assay type: in vivo, Veronica persica
How it was run: as §2

POLCO [13] = test: Post-emergence action against POLCO; assay type: in vivo, Polygonum convolvulus; conditions: post-emergence, dosage 80 g/ha
How it was run: as §1

AMARE [14] = test: Pre-emergence action against AMARE; assay type: in vivo, Amaranthus retroflexus
How it was run: as §2

CYPES [15] = test: Pre-emergence action against CYPES; assay type: in vivo, Cyperus esculentus; conditions: pre-emergence, dosage 320 g/ha, scored visually after 3 weeks vs untreated controls
How it was run: as §2

STEME [16] = test: Pre-emergence action against STEME; assay type: in vivo, Stellaria media
How it was run: as §2

ALOMY [17] = test: Post-emergence action against ALOMY; assay type: in vivo, Alopecurus myosuroides; conditions: Dosage 80 g/ha, post-emergence
Description: Seeds of monocotyledonous and dicotyledonous weed and crop plants are laid out in sandy loam soil in wood-fiber pots, covered with soil and cultivated in a greenhouse under good growth conditions. 2 to 3 weeks after sowing, the test plants are treated at the one-leaf stage. The compounds of the invention, formulated in the form of wettable powders (WP) or as emulsion concentrates (EC), are then sprayed onto the green parts of the plants in the form of an aqueous suspension or emulsion at a water application rate equating to […], with addition of 0.2% wetting agent. After the test plants have been left to stand in the greenhouse under optimal growth conditions for about 3 weeks, the action of the preparations is assessed visually in comparison to untreated controls (herbicidal action in percent (%): 100% activity=the plants have died, 0% activity=like control plants). […] At the same time, inventive compounds leave Gramineae crops such as barley, wheat, rye, millet/Sorghum, corn or rice virtually undamaged when applied post-emergence, even at high active ingredient dosages. In addition, some substances are also harmless to dicotyledonous crops such as soya, cotton, oilseed rape, sugar beet or potatoes. Some of the compounds according to the invention have high selectivity and are therefore suitable for controlling unwanted vegetation in agricultural crops by the post-emergence method. The data of Tables B18 to B34 below illustrate, in an exemplary manner, the […] herbicidal action of the compounds according to the invention, the herbicidal activity being stated in percent.

VIOTR [18] = test: Pre-emergence action against VIOTR; assay type: in vivo, Viola tricolor; conditions: for Herbicidal efficacy against VIOTR: 20 g of a.i./ha
How it was run: as §2

STEME [19] = test: Post-emergence action against STEME; assay type: in vivo, Stellaria media; conditions: post-emergence, dosage 80 g/ha
How it was run: as §1

POLCO [20] = test: Pre-emergence action against POLCO; assay type: in vivo, Polygonum convolvulus; conditions: Fallopia convolvulus, 504 h; Dosage 320 g/ha, pre-emergence
How it was run: as §2

ABUTH [21] = test: Pre-emergence action against ABUTH; assay type: in vivo, Abutilon theophrasti; conditions: pre-emergence, dosage 320 g/ha, scored visually after 3 weeks vs untreated controls
How it was run: as §2

AVEFA [22] = test: Pre-emergence action against AVEFA; assay type: in vivo, Avena fatua; conditions: dosage 320 g/ha, scored visually after 3 weeks vs untreated controls
How it was run: as §2

ALOMY [23] = test: Pre-emergence action against ALOMY; assay type: in vivo, Alopecurus myosuroides; conditions: dosage 320 g/ha; pre-emergence; scored visually after 3 weeks vs untreated controls; 100% = plants have died, 0% = like control plants
How it was run: as §2

CYPES [24] = test: Post-emergence action against CYPES; assay type: in vivo, Cyperus esculentus; conditions: post-emergence, dosage 80 g/ha, visual assessment about 3 weeks after treatment vs untreated controls
How it was run: as §1

[25] = Table V8, pre-emergence, 20 g of a.i./ha
[26] = Table V17, post-emergence, 5 g of a.i./ha
[27] = pre-emergence, dosage 320 g/ha, scored visually after 3 weeks vs untreated controls

CC(=O)c1c(S(C)(=O)=O)ccc(C(=O)Nc2nnnn2C)c1C [1-7]
70: Herbicidal efficacy against ECHCG (ECHCG [2]; [25])
80%: pest or weed control at 80 g/ha (AVEFA [4]; Avena fatua, 504 h, read-out: Post-emergence action against AVEFA (herbicidal action in percent)) | pest or weed control at 80 g/ha (POLCO [13]; Fallopia convolvulus, 504 h) | pest or weed control at 80 g/ha (ALOMY [17]; Alopecurus myosuroides, 504 h) | pest or weed control at 320 g/ha (POLCO [20])
100%: pest or weed control at 80 g/ha (VERPE [1]; Veronica persica, 504 h) | pest or weed control at 320 g/ha (ECHCG [2]; Echinochloa crus-galli, 504 h, pre-emergence, dosage 320 g/ha, scored visually after 3 weeks vs untreated controls, read-out: Pre-emergence action against ECHCG (herbicidal activity)) | pest or weed control at 80 g/ha (PHBPU; Ipomoea purpurea, 504 h) | pest or weed control at 320 g/ha (MATIN [6]; Tripleurospermum inodorum, 504 h, Dosage 320 g/ha, pre-emergence) | pest or weed control at 320 g/ha (SETVI [7]; Setaria viridis, 504 h, read-out: SETVI (Table B8, pre-emergence herbicidal activity)) | pest or weed control at 80 g/ha (AMARE [8]) | pest or weed control at 80 g/ha (VIOTR [9]; Viola tricolor, 504 h, post-emergence, dosage 80 g/ha) | pest or weed control at 80 g/ha (MATIN [11]; Tripleurospermum inodorum, 504 h, post-emergence, dosage 80 g/ha, visual assessment about 3 weeks after treatment vs untreated controls, read-out: Post-emergence action against MATIN (herbicidal action in percent)) | pest or weed control at 320 g/ha (VERPE [12]; Veronica persica, 504 h, Dosage 320 g/ha, pre-emergence) | pest or weed control at 320 g/ha (AMARE [14]; Amaranthus retroflexus, 504 h, pre-emergence, dosage 320 g/ha, scored visually after 3 weeks vs untreated controls, read-out: Pre-emergence action against AMARE (herbicidal activity)) | pest or weed control at 320 g/ha (CYPES [15]; Cyperus esculentus, 504 h, read-out: Pre-emergence action against CYPES (herbicidal activity)) | pest or weed control at 320 g/ha (VIOTR [18]; Viola tricolor, 504 h, Dosage 320 g/ha, pre-emergence) | pest or weed control at 80 g/ha (STEME [19]; Stellaria media, 504 h) | pest or weed control at 320 g/ha (ABUTH [21]; Abutilon theophrasti, 504 h, read-out: Pre-emergence action against ABUTH (herbicidal activity))
90%: pest or weed control at 80 g/ha (ECHCG [3]; Echinochloa crus-galli, 504 h, read-out: Post-emergence action against ECHCG (herbicidal action in percent)) | pest or weed control at 80 g/ha (ABUTH [5]; Abutilon theophrasti, 504 h, read-out: Post-emergence action against ABUTH (herbicidal action in percent)) | pest or weed control at 80 g/ha (SETVI [10]; Setaria viridis, 504 h, read-out: Post-emergence action against SETVI (herbicidal action in percent)) | pest or weed control at 320 g/ha (STEME [16]; Stellaria media, 504 h, Dosage 320 g/ha, pre-emergence)
100: Herbicidal efficacy against VIOTR (VIOTR [9]; [26]) | Herbicidal efficacy against MATIN (MATIN [11]; [26]) | Herbicidal efficacy against VERPE (VERPE [12]; [25]) | Herbicidal efficacy against AMARE (AMARE [14]; [25]) | Herbicidal efficacy against VIOTR (VIOTR [18]; Table V5, pre-emergence) | Herbicidal efficacy against VIOTR (VIOTR [18]; Table V8, pre-emergence)
90: Herbicidal efficacy against MATIN (MATIN [6]; Table V5, pre-emergence) | Herbicidal efficacy against MATIN (MATIN [6]; Table V8, pre-emergence) | Herbicidal efficacy against STEME (STEME [16]; [25])

CCCn1nnnc1NC(=O)c1ccc(C(F)(F)F)c(C(=O)C2CC2)c1C [3-18]
90%: Post-emergence action against MATIN (herbicidal action in percent) (MATIN [11]; post-emergence, dosage 80 g/ha, visual assessment about 3 weeks after treatment vs untreated controls) | Pre-emergence action against VERPE (VERPE [12]; Dosage 320 g/ha, pre-emergence) | Pre-emergence action against CYPES (herbicidal activity) (CYPES [15]) | Post-emergence action against CYPES (herbicidal action in percent) (CYPES [24])
100%: Pre-emergence action against ECHCG (herbicidal activity) (ECHCG [2]; [27]) | Pre-emergence action against MATIN (MATIN [6]; Dosage 320 g/ha, pre-emergence) | SETVI (Table B8, pre-emergence herbicidal activity) (SETVI [7]) | Post-emergence action against SETVI (herbicidal action in percent) (SETVI [10]) | Pre-emergence action against AMARE (herbicidal activity) (AMARE [14]; [27]) | Pre-emergence action against STEME (STEME [16]; Dosage 320 g/ha, pre-emergence) | Pre-emergence action against VIOTR (VIOTR [18]; Dosage 320 g/ha, pre-emergence) | Pre-emergence action against ABUTH (herbicidal activity) (ABUTH [21])
90: Post-emergence action against PHBPU (PHBPU)
80%: Pre-emergence action against AVEFA (herbicidal activity) (AVEFA [22]) | Post-emergence action against ECHCG (herbicidal action in percent) (ECHCG [3]) | Pre-emergence action against ALOMY (herbicidal activity in percent) (ALOMY [23]) | Post-emergence action against AVEFA (herbicidal action in percent) (AVEFA [4]) | Post-emergence action against ABUTH (herbicidal action in percent) (ABUTH [5]) | Post-emergence action against ALOMY (ALOMY [17])
80: Post-emergence action against VERPE (VERPE [1]) | Post-emergence action against POLCO (POLCO [13])
100: Post-emergence action against VIOTR (VIOTR [9]; post-emergence, dosage 80 g/ha) | Post-emergence action against STEME (STEME [19])
